What was measured:
EF-G [1] = molecular target: EF-G (Escherichia coli, UniProt P0A6M8, H92A); experiment: equilibrium titration, Trp fluorescence; format: binding
EF-G [2] = molecular target: EF-G (Escherichia coli, UniProt P0A6M8); experiment: equilibrium titration, Trp fluorescence; format: binding
[3] = molecular target: Ribosomes from E. coli MRE 600 (E. coli MRE 600) (UniProt P0AG67); experiment: stopped-flow fluorescence of mant-nucleotide excited by FRET from Trp of EF-G

EF-G (Escherichia coli, UniProt P0A6M8), sequence (P0A6M8 2-704): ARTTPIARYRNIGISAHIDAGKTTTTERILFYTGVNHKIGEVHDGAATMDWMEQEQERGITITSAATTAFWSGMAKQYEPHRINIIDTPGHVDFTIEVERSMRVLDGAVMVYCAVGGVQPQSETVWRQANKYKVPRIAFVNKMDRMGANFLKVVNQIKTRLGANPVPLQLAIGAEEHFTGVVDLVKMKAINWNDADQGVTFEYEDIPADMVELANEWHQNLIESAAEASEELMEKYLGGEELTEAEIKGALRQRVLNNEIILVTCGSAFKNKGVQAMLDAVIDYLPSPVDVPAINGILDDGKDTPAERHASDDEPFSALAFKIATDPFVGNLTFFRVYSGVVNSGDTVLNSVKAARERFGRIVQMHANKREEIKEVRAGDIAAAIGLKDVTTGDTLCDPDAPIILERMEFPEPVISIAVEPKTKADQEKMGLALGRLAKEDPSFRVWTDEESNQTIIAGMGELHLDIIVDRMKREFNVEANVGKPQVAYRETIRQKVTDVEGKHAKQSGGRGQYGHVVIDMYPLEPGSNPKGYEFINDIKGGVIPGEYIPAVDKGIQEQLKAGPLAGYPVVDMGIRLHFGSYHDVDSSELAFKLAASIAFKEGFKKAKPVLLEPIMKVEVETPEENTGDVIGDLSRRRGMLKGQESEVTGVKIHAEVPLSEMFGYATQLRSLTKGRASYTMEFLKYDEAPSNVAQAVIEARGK
EF-G (Escherichia coli, UniProt P0A6M8, H92A), sequence (P0A6M8 2-704 H92A): as the sequence (P0A6M8 2-704) above, with H91A counted along it

Compound | Kd (EF-G [1]) | Kd (EF-G [2]) | rate of formation of the ribosome–EF-G-mant-GTP complex [3]
Nc1nc2c(ncn2[C@@H]2O[C@H](COP(=O)(O)OP(=O)(O)OP(=O)(O)O)[C@@H](O)[C@H]2O)c(=O)[nH]1 [GTP] | 1 to 2 µM | 1 to 2 µM | 
EF-G(H91A) (enzyme) |  |  | 1 s⁻¹
